Values of other authors in patent US5591773A, “Inhibition of cataract formation, diseases resulting from oxidative stress, and HIV replication by caffeic acid esters” (priority 1994, dated 1997).

How the values were obtained:
tumor promotion = settings: cited from earlier work
bovine lens (opacity) = settings: cited from earlier work
HeLa cells = settings: cited from earlier work
bovine lens (H2O2) = settings: cited from earlier work
[1] = test system: TPA-induced oxidative processes (PMN infiltration, reactive oxygen species generation, DNA base oxidation); settings: sarcophytol A 6.5 nmol, TPA 6.5 nmol/treatment; cited from earlier work
mammalian cells = settings: cited from earlier work

Row | SMILES | anti-tumor promoting properties (in words) (tumor promotion) | inhibition of TPA-mediated lens opacification (in words) (bovine lens (opacity)) | inhibition of TPA-mediated H2O2 production, lens (in words) (bovine lens (H2O2)) | other results
1 | COc1cc(/C=C/C(=O)CC(=O)/C=C/c2ccc(O)c(OC)c2)ccc1O [curcumin] | known anti-tumor promoters |  |  | 
2 | O=C(O[C@@H]1Cc2c(O)cc(O)cc2O[C@@H]1c1cc(O)c(O)c(O)c1)c1cc(O)c(O)c(O)c1 [EGCG, (-)-epigallocatechin gallate] | known anti-tumor promoters | effective inhibitors | effective inhibitors | inhibition of TPA-induced oxidative processes (in words) (HeLa cells; EGCG 50 nmol): less effective inhibition of TPA-induced oxidative processes; HMdUrd and 8-OHdGua levels (in words) (HeLa cells; EGCG 5-25 nmol preincubation, TPA): contained lower levels of HMdUrd and 8-OHdGua than cells treated only with TPA
3 | O=C(O)/C=C/c1ccc(O)c(O)c1 [caffeic acid] | known anti-tumor promoters |  |  | 
4 | C/C1=C\C=C(\C(C)C)[C@@H](O)C/C(C)=C/CC/C(C)=C/CC1 [sarcophytol A] | known anti-tumor promoters | effective inhibitors | effective inhibitors | inhibition of TPA-induced oxidative processes (in words) [1]: potent inhibitor
5 | O=c1[nH]c(=O)n([C@H]2C[C@H](O)[C@@H](CO)O2)cc1CO [HMdUrd, 5-hydroxymethyl-2'-deoxyuridine] |  |  |  | cytotoxicity and mutagenicity (in words) (mammalian cells): cytotoxic and cytostatic to a number of mammalian cells and is mutagenic
